Experimental data reported in the supplement of paper PMC11061612.

What was measured:
Assay in all cases: combination Emax (second highest fraction inhibited in the dose matrix, 72 h); higher = more inhibition; extreme values may be limits of the assay
AM-38 (Glioblastoma) = system: AM-38 (Glioblastoma)
Method in brief: (§1)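 Cell lines in DMEM/F12 or RPMI with 10% FBS were plated in 1536-well plates, held 24 hours at 37°C, 5% CO2, then given two-drug dose matrices for 72 hours (DMSO typically 0.2%). Viability was read by CellTiter-Glo 2.0 luminescence and scaled as inhibition from 0 (vehicle wells) to 1 (blank wells). Combination Emax is the second-highest inhibition in the matrix; Bliss excess is observed combination effect minus expected EA + EB − EA·EB, EA and EB being single-agent effects.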

[1] = system: HT-1080 (Other Solid Carcinomas)
Method in brief: as §1

[2] = system: IA-LM (Non-Small Cell Lung Carcinoma)
Method in brief: as §1

KALS-1 (Glioblastoma) = system: KALS-1 (Glioblastoma)
Method in brief: as §1

[3] = system: LCLC-103H (Non-Small Cell Lung Carcinoma)
Method in brief: as §1

[4] = system: MDA-MB-415 (Breast Carcinoma)
Method in brief: as §1

[5] = system: MOLP-8 (Plasma Cell Myeloma)
Method in brief: as §1

[6] = system: MONO-MAC-6 (Acute Myeloid Leukemia)
Method in brief: as §1

[7] = system: MS-1 (Small Cell Lung Carcinoma)
Method in brief: as §1

NB1 (Neuroblastoma) = system: NB1 (Neuroblastoma)
Method in brief: as §1

[8] = system: NCI-H3118 (Head and Neck Carcinoma)
Method in brief: as §1

[9] = system: P30-OHK (B-Lymphoblastic Leukemia)
Method in brief: as §1

[10] = system: P32-ISH (Burkitt's Lymphoma)
Method in brief: as §1

[11] = system: PA-TU-8988T (Pancreatic Carcinoma)
Method in brief: as §1

[12] = system: PL4 (Pancreatic Carcinoma)
Method in brief: as §1

[13] = system: RCC-JW (Kidney Carcinoma)
Method in brief: as §1

[14] = system: Raji (Burkitt's Lymphoma)
Method in brief: as §1

[15] = system: SUP-M2 (T-Cell Non-Hodgkin's Lymphoma)
Method in brief: as §1

[16] = system: SiHa (Cervical Carcinoma)
Method in brief: as §1

[17] = system: T84 (Colorectal Carcinoma)
Method in brief: as §1

Row | Compound | combination Emax (AM-38 (Glioblastoma)) | combination Emax [1] | combination Emax [2] | combination Emax (KALS-1 (Glioblastoma)) | combination Emax [3] | combination Emax [4] | combination Emax [5] | combination Emax [6] | combination Emax [7] | combination Emax (NB1 (Neuroblastoma)) | combination Emax [8] | combination Emax [9] | combination Emax [10] | combination Emax [11] | combination Emax [12] | combination Emax [13] | combination Emax [14] | combination Emax [15] | combination Emax [16] | combination Emax [17]
1 | COc1cccc2c1C(=O)c1c(O)c3c(c(O)c1C2=O)C[C@@](O)(C(=O)CO)C[C@@H]3O[C@H]1C[C@H](N)[C@H](O)[C@H](C)O1 [Doxorubicin] + Cc1cc2ncnn2cc1Nc1ncc2c(n1)n(C1CCOCC1)c(=O)n2C [AZD7648] (first compound max 1 µM, 7x7, partner max 10 µM) | 0.826 | 0.67 | 0.463 | 0.832 | 0.85 | 0.568 | 0.915 | 0.999 | 0.905 | 0.89 | 0.758 | 0.975 | 0.992 | 0.791 | 0.535 | 0.75 | 0.96 | 1 | 0.571 | 0.163
2 | Cc1cc2ncnn2cc1Nc1ncc2c(n1)n(C1CCOCC1)c(=O)n2C [AZD7648] + O=C(c1cc(Cc2n[nH]c(=O)c3ccccc23)ccc1F)N1CCN(C(=O)C2CC2)CC1 [Olaparib] (first compound max 10 µM, 7x7, partner max 10 µM) | 0.616 | 0.147 | 0.158 | 0.18 | 0.299 | 0.263 | 0.382 | 0.317 | 0.399 | 0.191 | 0.167 | 0.364 | 0.207 | 0.339 | 0.28 | 0.198 | 0.396 | 0.831 | 0.143 | 0
3 | C=CCn1c(=O)c2cnc(Nc3ccc(N4CCN(C)CC4)cc3)nc2n1-c1cccc(C(C)(C)O)n1 [AZD1775] + C[C@@H]1COCCN1C2=NC(=NC(=C2)C3(CC3)[S@](=N)(=O)C)C4=C5C=CNC5=NC=C4 [AZD6738] (first compound max 1 µM, partner max 10 µM) | 0.818 | 0.476 | 0.446 | 0.923 | 0.752 | 0.595 | 0.854 | 1 | 0.983 | 0.944 | 0.855 | 0.943 | 1 | 0.833 | 0.738 | 0.725 | 0.937 | 1 | 0.371 | 0.817
4 | CC1(C)CCC(CN2CCN(c3ccc(C(=O)NS(=O)(=O)c4ccc(NCC5CCOCC5)c([N+](=O)[O-])c4)c(Oc4cnc5[nH]ccc5c4)c3)CC2)=C(c2ccc(Cl)cc2)C1 [Venetoclax] + CN(C)CCCOc1ccc(-c2ccc3ncc4c(c3c2)n(C2CCOCC2)c(=O)n4C)cn1 [AZD0156] (first compound max 1 µM, 7x7, partner max 1 µM) | 0.209 | 0.105 | 0.217 | 0.646 | 0.285 | 0.262 | 0.169 | 0.619 | 0.445 | 0.145 | 0.181 | 0.458 | 0.0131 | 0.179 | 0.248 | 0.184 | 0.244 | 0.264 | 0.152 | 0.19
5 | NC1(C(=O)N[C@@H](CCO)c2ccc(Cl)cc2)CCN(c2ncnc3[nH]ccc23)CC1 [Capivasertib] + CC(=O)c1c(C)c2cnc(Nc3ccc(N4CCNCC4)cn3)nc2n(C2CCCC2)c1=O [Palbociclib] (first compound max 10 µM, 7x7, partner max 10 µM) | 0.473 | 0.101 | 0.206 | 0.398 | 0.448 | 0.769 | 0.655 | 0.728 | 0.266 | 0.697 | 0.519 | 0.56 | 0.774 | 0.456 | 0.478 | 0.449 | 0.491 | 0.89 | 0.252 | 0.267
6 | CCN(CCO)CCCOc1ccc2c(Nc3cc(CC(=O)Nc4cccc(F)c4)[nH]n3)ncnc2c1 [AZD2811] + O=C(c1cc(Cc2n[nH]c(=O)c3ccccc23)ccc1F)N1CCN(C(=O)C2CC2)CC1 [Olaparib] (first compound max 1 µM, 7x7, partner max 10 µM) | 0.331 | 0.215 | 0.222 | 0.296 | 0.752 | 0.225 | 0.434 | 0.783 | 0.454 | 0.653 | 0.208 | 0.848 | 0.946 | 0.208 | 0.269 | 0.183 | 0.341 | 0.975 | 0.173 | 0.112
7 | Cc1c2c(nn1C)CSCc1cc(n(C)n1)CSc1cc(c3ccccc3c1)OCCCc1c(C(=O)O)n(C)c3c-2c(Cl)ccc13 [AZD5991] + CN(C)CCCOc1ccc(-c2ccc3ncc4c(c3c2)n(C2CCOCC2)c(=O)n4C)cn1 [AZD0156] (first compound max 1 µM, 7x7, partner max 1 µM) | 0.677 | 0.183 | 0.257 | 0.273 | 0.375 | 0.463 | 1 | 1 | 0.524 | 0.278 | 0.314 | 0.71 | 1 | 0.214 | 0.357 | 0.289 | 0.704 | 1 | 0.326 | 0.192
8 | CN(CCO)CC[C@H](CSc1ccccc1)Nc1ccc(S(=O)(=O)NC(=O)c2ccc(N3CCC([C@@H](O)c4ccccc4-c4ccc(Cl)cc4)CC3)cc2)cc1S(=O)(=O)C(F)(F)F [AZD4320] + CN(C)CCCOc1ccc(-c2ccc3ncc4c(c3c2)n(C2CCOCC2)c(=O)n4C)cn1 [AZD0156] (first compound max 1 µM, 7x7, partner max 1 µM) | 0.718 | 0.549 | 0.432 | 0.227 | 0.219 | 0.636 | 0.315 | 0.422 | 0.68 | 0.173 | 0.0719 | 0.987 | 0.17 | 0.183 | 0.462 | 0.62 | 0.136 | 0.388 | 0.108 | 0.108
9 | Cc1c2c(nn1C)CSCc1cc(n(C)n1)CSc1cc(c3ccccc3c1)OCCCc1c(C(=O)O)n(C)c3c-2c(Cl)ccc13 [AZD5991] + CCN(CCO)CCCOc1ccc2c(Nc3cc(CC(=O)Nc4cccc(F)c4)[nH]n3)ncnc2c1 [AZD2811] (first compound max 1 µM, 7x7, partner max 1 µM) | 0.32 | 0.264 | 0.296 | 0.358 | 0.371 | 0.56 | 1 | 1 | 0.48 | 0.694 | 0.625 | 0.963 | 1 | 0.775 | 0.474 | 0.251 | 0.776 | 1 | 0.368 | 0.177
10 | Cc1c2c(nn1C)CSCc1cc(n(C)n1)CSc1cc(c3ccccc3c1)OCCCc1c(C(=O)O)n(C)c3c-2c(Cl)ccc13 [AZD5991] + C[C@@H](Nc1cc(F)cc(F)c1)c1cc(C(=O)N(C)C)cc2c(=O)cc(N3CCOCC3)oc12 [AZD8186] (first compound max 1 µM, 7x7, partner max 3 µM) | 0.436 | 0.157 | 0.201 | 0.436 | 0.352 | 0.931 | 1 | 1 | 0.48 | 0.26 | 0.33 | 0.805 | 1 | 0.45 | 0.421 | 0.461 | 0.749 | 0.996 | 0.356 | 0.139
11 | NC1(C(=O)N[C@@H](CCO)c2ccc(Cl)cc2)CCN(c2ncnc3[nH]ccc23)CC1 [Capivasertib] + CCN(CCO)CCCOc1ccc2c(Nc3cc(CC(=O)Nc4cccc(F)c4)[nH]n3)ncnc2c1 [AZD2811] (first compound max 10 µM, 7x7, partner max 1 µM) | 0.285 | 0.256 | 0.304 | 0.495 | 0.413 | 0.837 | 0.583 | 0.817 | 0.386 | 0.79 | 0.241 | 0.886 | 0.951 | 0.546 | 0.393 | 0.358 | 0.293 | 0.992 | 0.299 | 0.389
12 | Cn1cnc2c(F)c(Nc3ccc(Br)cc3Cl)c(C(=O)NOCCO)cc21 [Selumetinib] + CC(C)n1c(=O)n(C)c2cnc3cc(F)c(-c4ccc(OCCCN5CCCCC5)nc4)cc3c21 [AZD1390] (first compound max 10 µM, 7x7, partner max 0.3 µM) | 0.437 | 0.261 | 0.244 | 0.405 | 0.138 | 0.222 | 0.325 | 0.231 | 0.117 | 0.127 | 0.577 | 0.217 | 0.101 | 0.321 | 0.567 | 0.0923 | 0.233 | 0.168 | 0.156 | 0.397
13 | CN(C)CCCOc1ccc(-c2ccc3ncc4c(c3c2)n(C2CCOCC2)c(=O)n4C)cn1 [AZD0156] + C=CCn1c(=O)c2cnc(Nc3ccc(N4CCN(C)CC4)cc3)nc2n1-c1cccc(C(C)(C)O)n1 [AZD1775] (first compound max 1 µM, partner max 1 µM) | 0.437 | 0.331 | 0.231 | 0.855 | 0.519 | 0.177 | 0.721 | 0.886 | 0.877 | 0.936 | 0.842 | 0.678 | 0.995 | 0.718 | 0.445 | 0.221 | 0.695 | 1 | 0.143 | 0.556
